Test results from ChEMBL document CHEMBL1201862, “PubChem BioAssay data set” (2004).
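96-well plates; 48 h exposure; 5 concentrations. Endpoints by linear interpolation between flanking doses. Not reached: highest tested concentration assigned. GI50 = concentration required for 50% inhibition of growth.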 The source made the active and inactive calls. Rule as the data show it: active = GI50 up to about 1.1 µM and inactive = higher.

How the values were obtained:
Assay in all cases: NCI tumour cell line growth inhibition, 48 h
EKVX = test system: EKVX
MOLT-4 = test system: MOLT-4
OVCAR-8 = test system: OVCAR-8
KM12 = test system: KM12
IGROV-1 = test system: IGROV-1
SNB-75 = test system: SNB-75
HT-29 = test system: HT-29
UACC-257 = test system: UACC-257
K562 = test system: K562
UACC-62 = test system: UACC-62
HL-60 = test system: HL-60
SK-MEL-28 = test system: SK-MEL-28
NCI-H23 = test system: NCI-H23
SF-295 = test system: SF-295
SF-268 = test system: SF-268
M19-MEL = test system: M19-MEL
DLD-1 = test system: DLD-1
SK-MEL-5 = test system: SK-MEL-5
A549 = test system: A549
A498 = test system: A498
KM-20L2 = test system: KM-20L2
NCI/ADR-RES = test system: NCI/ADR-RES
SK-MEL-2 = test system: SK-MEL-2
HCC 2998 = test system: HCC 2998
NCI-H226 = test system: NCI-H226
CCRF-CEM = test system: CCRF-CEM
OVCAR-5 = test system: OVCAR-5
LOX IMVI = test system: LOX IMVI
HCT-116 = test system: HCT-116
SF-539 = test system: SF-539
HCT-15 = test system: HCT-15
OVCAR-3 = test system: OVCAR-3
SNB-78 = test system: SNB-78
CAKI-1 = test system: CAKI-1
OVCAR-4 = test system: OVCAR-4
NCI-H460 = test system: NCI-H460
RPMI-8226 = test system: RPMI-8226
RXF 393 = test system: RXF 393
COLO 205 = test system: COLO 205
SN12C = test system: SN12C
DMS-114 = test system: DMS-114
HOP-62 = test system: HOP-62
UO-31 = test system: UO-31
SW-620 = test system: SW-620
SNB-19 = test system: SNB-19
SK-OV-3 = test system: SK-OV-3
U-251 = test system: U-251
HOP-92 = test system: HOP-92
HOP-18 = test system: HOP-18
XF498 = test system: XF498
MCF7 = test system: MCF7
DMS-273 = test system: DMS-273
NCI-H522 = test system: NCI-H522
Malme-3M = test system: Malme-3M
ACHN = test system: ACHN
TK-10 = test system: TK-10
786-0 = test system: 786-0

COC(=O)C1=CC[C@@H]2C(C(=O)O)=CO[C@@H](OC3OC(CO)C(O)C(O)C3O)[C@H]12 (stereo not given in full)
GI50 (EKVX): > 300 µM (inactive) | GI50 (MOLT-4): > 300 µM (inactive) | GI50 (OVCAR-8): > 300 µM (inactive) | GI50 (KM12): > 300 µM (inactive) | GI50 (IGROV-1): > 300 µM (inactive) | GI50 (SNB-75): > 300 µM (inactive) | GI50 (HT-29): > 300 µM (inactive) | GI50 (UACC-257): > 300 µM (inactive) | GI50 (K562): > 300 µM (inactive) | GI50 (UACC-62): > 300 µM (inactive) | GI50 (HL-60): > 300 µM (inactive) | GI50 (SK-MEL-28): > 300 µM (inactive) | GI50 (NCI-H23): > 300 µM (inactive) | GI50 (SF-295): > 150 µM (inactive) | GI50 (SF-268): > 300 µM (inactive) | GI50 (M19-MEL): > 300 µM (inactive) | GI50 (DLD-1): > 189 µM (inactive) | GI50 (SK-MEL-5): > 151 µM (inactive) | GI50 (A549): > 300 µM (inactive) | GI50 (A498): > 30 µM (inactive) | GI50 (KM-20L2): > 300 µM (inactive) | GI50 (NCI/ADR-RES): > 300 µM (inactive) | GI50 (SK-MEL-2): > 300 µM (inactive) | GI50 (HCC 2998): > 110 µM (inactive) | GI50 (NCI-H226): 299 µM (inactive) | GI50 (CCRF-CEM): > 119 µM (inactive) | GI50 (OVCAR-5): > 300 µM (inactive) | GI50 (LOX IMVI): > 300 µM (inactive) | GI50 (HCT-116): > 300 µM (inactive) | GI50 (SF-539): > 300 µM (inactive) | GI50 (HCT-15): > 300 µM | GI50 (OVCAR-3): > 300 µM (inactive) | GI50 (SNB-78): > 142 µM (inactive) | GI50 (CAKI-1): > 300 µM (inactive) | GI50 (OVCAR-4): > 300 µM (inactive) | GI50 (NCI-H460): > 300 µM (inactive) | GI50 (RPMI-8226): > 300 µM (inactive) | GI50 (RXF 393): > 300 µM (inactive) | GI50 (COLO 205): > 300 µM (inactive) | GI50 (SN12C): > 300 µM (inactive) | GI50 (DMS-114): > 300 µM (inactive) | GI50 (HOP-62): > 300 µM (inactive) | GI50 (UO-31): > 300 µM (inactive) | GI50 (SW-620): > 300 µM (inactive) | GI50 (SNB-19): > 300 µM (inactive) | GI50 (SK-OV-3): > 300 µM (inactive) | GI50 (U-251): > 300 µM (inactive) | GI50 (HOP-92): > 110 µM (inactive) | GI50 (HOP-18): 13.7 µM (inactive) | GI50 (XF498): > 228 µM (inactive) | GI50 (MCF7): > 114 µM (inactive) | GI50 (DMS-273): > 300 µM (inactive) | GI50 (NCI-H522): > 300 µM (inactive) | GI50 (Malme-3M): > 263 µM (inactive)

CC(C)(C)/N=C\N1CCC(C(c2ccccc2)c2ccccc2)CC1
GI50 (EKVX): > 100 µM (inactive) | GI50 (OVCAR-8): > 100 µM (inactive) | GI50 (KM12): 65.8 µM (inactive) | GI50 (IGROV-1): > 100 µM (inactive) | GI50 (SNB-75): 21.9 µM (inactive) | GI50 (HT-29): 21.6 µM (inactive) | GI50 (UACC-257): 37.3 µM (inactive) | GI50 (K562): 35.1 µM (inactive) | GI50 (UACC-62): 35.7 µM (inactive) | GI50 (SK-MEL-28): 43.4 µM (inactive) | GI50 (NCI-H23): > 100 µM (inactive) | GI50 (SF-295): > 100 µM (inactive) | GI50 (SF-268): 49.8 µM (inactive) | GI50 (M19-MEL): 37.2 µM (inactive) | GI50 (DLD-1): > 100 µM (inactive) | GI50 (SK-MEL-5): 67 µM (inactive) | GI50 (A549): 98.4 µM (inactive) | GI50 (A498): 38.3 µM (inactive) | GI50 (KM-20L2): 14.9 µM (inactive) | GI50 (SK-MEL-2): > 100 µM (inactive) | GI50 (OVCAR-5): 54.2 µM (inactive) | GI50 (LOX IMVI): 23.8 µM (inactive) | GI50 (HCT-116): 50 µM (inactive) | GI50 (SF-539): 78.7 µM (inactive) | GI50 (ACHN): 82.4 µM (inactive) | GI50 (TK-10): 40.6 µM (inactive) | GI50 (HCT-15): 55.3 µM | GI50 (OVCAR-3): 80.5 µM (inactive) | GI50 (SNB-78): 64.6 µM (inactive) | GI50 (CAKI-1): 42.4 µM (inactive) | GI50 (OVCAR-4): 46.8 µM (inactive) | GI50 (NCI-H460): 87.7 µM (inactive) | GI50 (RPMI-8226): 45.2 µM (inactive) | GI50 (RXF 393): 22.9 µM (inactive) | GI50 (786-0): > 100 µM (inactive) | GI50 (COLO 205): 19.1 µM (inactive) | GI50 (SN12C): 78.3 µM (inactive) | GI50 (DMS-114): 72.1 µM (inactive) | GI50 (HOP-62): > 100 µM (inactive) | GI50 (SW-620): > 100 µM (inactive) | GI50 (SNB-19): > 100 µM (inactive) | GI50 (U-251): 60.4 µM (inactive) | GI50 (HOP-92): 31.7 µM (inactive) | GI50 (HOP-18): 53.2 µM (inactive) | GI50 (XF498): 30.8 µM (inactive) | GI50 (DMS-273): 65.3 µM (inactive) | GI50 (Malme-3M): 18.2 µM (inactive)

CCC1OC(=O)C(C)C(OC2CC(C)(O)C(O)C(C)O2)C(C)C(O)C(C)(O)CC(C)C(=O)C(C)C(O)C1C (stereo not given)
GI50 (EKVX): > 300 µM (inactive) | GI50 (MOLT-4): > 300 µM (inactive) | GI50 (OVCAR-8): > 300 µM (inactive) | GI50 (KM12): 225 µM (inactive) | GI50 (IGROV-1): > 300 µM (inactive) | GI50 (SNB-75): > 300 µM (inactive) | GI50 (HT-29): > 300 µM (inactive) | GI50 (UACC-257): > 300 µM (inactive) | GI50 (K562): > 300 µM (inactive) | GI50 (UACC-62): > 300 µM (inactive) | GI50 (HL-60): > 300 µM (inactive) | GI50 (SK-MEL-28): > 300 µM (inactive) | GI50 (NCI-H23): > 300 µM (inactive) | GI50 (SF-295): > 300 µM (inactive) | GI50 (SF-268): > 300 µM (inactive) | GI50 (M19-MEL): > 300 µM (inactive) | GI50 (DLD-1): > 300 µM (inactive) | GI50 (SK-MEL-5): > 300 µM (inactive) | GI50 (A549): > 300 µM (inactive) | GI50 (A498): > 267 µM (inactive) | GI50 (KM-20L2): > 300 µM (inactive) | GI50 (NCI/ADR-RES): > 300 µM (inactive) | GI50 (SK-MEL-2): > 300 µM (inactive) | GI50 (HCC 2998): > 300 µM (inactive) | GI50 (NCI-H226): > 300 µM (inactive) | GI50 (CCRF-CEM): > 300 µM (inactive) | GI50 (OVCAR-5): > 292 µM (inactive) | GI50 (LOX IMVI): > 300 µM (inactive) | GI50 (HCT-116): > 300 µM (inactive) | GI50 (SF-539): > 300 µM (inactive) | GI50 (HCT-15): > 300 µM | GI50 (OVCAR-3): > 300 µM (inactive) | GI50 (SNB-78): 204 µM (inactive) | GI50 (CAKI-1): > 300 µM (inactive) | GI50 (OVCAR-4): > 300 µM (inactive) | GI50 (NCI-H460): > 300 µM (inactive) | GI50 (RPMI-8226): > 300 µM (inactive) | GI50 (RXF 393): > 300 µM (inactive) | GI50 (COLO 205): > 300 µM (inactive) | GI50 (SN12C): > 300 µM (inactive) | GI50 (DMS-114): > 300 µM (inactive) | GI50 (HOP-62): 299 µM (inactive) | GI50 (UO-31): > 300 µM (inactive) | GI50 (SW-620): > 300 µM (inactive) | GI50 (SNB-19): > 300 µM (inactive) | GI50 (SK-OV-3): > 300 µM (inactive) | GI50 (U-251): > 300 µM (inactive) | GI50 (HOP-92): 30 µM (inactive) | GI50 (HOP-18): > 300 µM (inactive) | GI50 (XF498): > 300 µM (inactive) | GI50 (MCF7): > 300 µM (inactive) | GI50 (DMS-273): > 300 µM (inactive) | GI50 (NCI-H522): > 300 µM (inactive) | GI50 (Malme-3M): > 300 µM (inactive)
